Experimental data: patent US6710075B2, “Therapeutic compounds and methods” (The Government of the State of Sarawak, Malaysia, priority 2000, dated 2004)

Legend:
THP-1 cells [1] = assay: WST-1 reduction by THP-1 cells; format: cell-based, human; conditions: Homo sapiens
Excerpt: (§1) (a) Compounds A and B were identified from a bark sample of Aglaia leptantha through their ability to inhibit production of Tumour Necrosis Factor-α (TNF-α) by THP-1 human promonocytic leukemia cells (Tsuchiya, et al, Int. J. Cancer, 1980, 26(2):171-6) activated with lipopolysaccharide (LPS). Table 4 summarises the results comparing the activity of Compounds A and B for inhibition of TNF-α production to their effects on general cell metabolism measured using WST-1 reduction, DNA synthesis and protein synthesis assays for THP-1 cells. […] For comparison, the effects of Compounds A and B on A549 lung epithelial carcinoma cells (Leiber et al, Int. J. Cancer, 1976, 17(1)-62-70) were also measured and the data is also included in Table 4.

A549 cells [2] = assay: Relative cell size by forward light scatter (flow cytometry); format: cell-based, human; conditions: for % increase in mean cell volume: six days
Procedure: It is well known that cell proliferation and cell growth reflected as increased mass of individual cells are biochemically separable processes (Pardee, Science, 1989, 246:603-8). Although at certain concentrations Compound A can inhibit cell proliferation without overt cytotoxicity it was also evaluated whether Compound A also affected cell growth. For these experiments A549 cells were treated with various non-cytotoxic doses of Compound A up to 10 nM and the relative cell size determined after 6 days of culture by measuring forward light scatter using a flow cytometer. […] This occurred only at concentrations which are cytostatic for this cell type.

[3] = system: HL60 human promyelocytic leukemic cells; assay: Monocytic differentiation, CD14 surface antigen expression by flow cytometry; format: cell-based; conditions: 4 days
Procedure: This is a morphology highly characteristic of mature macrophages and similar morphological effects were observed when the cells were treated with other known inducers of macrophage differentiation including interferon-γ (IFNγ) or phorbol 12-myristate 13-acetate (PMA). To investigate this further the effects of Compound A on HL60 human promyelocytic leukemic cells (Collins, et al, Nature, 1977, 270:347-9) were examined (Table 11). This widely used cell line is well characterised as a model of human myelomonocytic differentiation (Collins, Blood, 1987, 70(5):1233-44). In this experiment monocytic differentiation was quantitated by measuring CD14 surface antigen expression by flow cytometric analysis CD14, all LPS-binding protein, is expressed on the surface of cells of the myelomonocytic lineage and is normally expressed at very low levels in undifferentiated HL60 cells (Ferrero et al., Blood, 1983, 61(1):171-9).

[4] = Body weight in the mouse xenograft tumour model; format: in vivo
Procedure: The ability of Compound A to inhibit growth of human tumour cells in vivo was assessed using male athymic mice injected subcutaneously in the dorsal flank region with 2×10^6 PC3 human prostate tumour cells. Compound A administration (3 mg/kg) by intraperitoneal injection commenced after eight days once the PC3 tumour was palpable and continued three times a week until 29 days after the initial inoculation of the tumour cells. At this time all mice were killed and tumours excised and weighed.

[5] = system: Tumour Necrosis Factor-α (TNF-α); assay: Inhibition of TNF-α production by LPS-activated THP-1 cells (sandwich ELISA); format: cell-based, human; conditions: 18 hours
Excerpt: as §1

K562 leukemic cells = assay: DNA content analysis (cell cycle) of K562 leukemic cells; format: cell-based, human; conditions: K562, 10-15 nM, 3 days
Procedure: K562 cells were cultured for 3 days with the indicated concentration of Compounds A or B then collected and fixed in 70% ethanol prior to staining with propidium iodide and DNA content determined by flow cytometry. The numbers indicate the % of cells in G0/G1, S and G2/M phases of the cell cycle respectively relative to all cells with ≧2N DNA content.

THP-1 cells [6] = assay: DNA synthesis, [14C]-thymidine uptake, THP-1 cells; format: cell-based, human; conditions: 48 hours
Excerpt: as §1

THP-1 cells [7] = assay: Acute DNA synthesis inhibition, [14C] thymidine incorporation, THP-1 cells; format: cell-based, human; conditions: 1 hour pretreatment + 2 hours label
A549 cells [8] = assay: Acute general protein biosynthesis inhibition, [14C] leucine incorporation, A549 cells; format: cell-based, human; conditions: 1 hour pretreatment + 2 hours label, read-out: IC50 Protein synthesis
A549 cells [9] = assay: DNA synthesis, [14C]-thymidine uptake, A549 cells; format: cell-based, human; conditions: Homo sapiens, A549, 72 h
Excerpt: as §1

A549 cells [10] = assay: Proliferation of A549 cells, haemocytometer counting of trypan blue stained cells; format: cell-based, human; conditions: for cell death: after 9 days
Procedure: A549 cells were seeded at ˜10,000 cells/well and cultured in the presence of the indicted concentrations of Compound A or paclitaxel. Cells were collected and the viable cell number determined by haemocytometer counting of trypan blue stained cells at the various times. The results are the averages ±SEM of triplicate cultures.
The cytostatic effect of Compound A on the proliferation of A549 cells was confirmed by directly counting the number of cells at intervals over a nine day period (FIG. 3). When compared to untreated cells 10 nM Compound A prevented the increase in cell number by more than 95% with fewer than 10% dead cells observed at this time (measured by trypan blue exclusion). Thus, under these conditions the decreased cell number can not simply be accounted for by increased cell death. […] At the higher concentrations of 50 nM and 250 nM Compound A had cytotoxic effects and increased cell death to 86% and 100% respectively after 9 days and accounts for the decline in cell number to levels below the original staring number at this time. At the non-cytotoxic concentration of 10 nM, Compound A has a rapid and potent cytostatic effect on A549 cells.

THP-1 cells [11] = assay: Protein synthesis, [14C]-leucine uptake, THP-1 cells; format: cell-based, human; conditions: 48 hours
Excerpt: as §1

COC(=O)[C@H]1[C@@H](O)[C@@]2(O)c3c(OC)cc(OC4OC(C(O)CO)COC4OC)cc3O[C@@]2(c2ccc(OC)cc2)[C@@H]1c1ccccc1 (single isomer, unassigned) [Compound A]
IC50 (THP-1 cells [1]; THP-1, 18 h, THP-1 cells, 18 hours of culture, read-out: IC50 WST-1 Reduction): 30 nM | IC50 (THP-1 cells [1]; THP-1, 72 h, THP-1 leukemic cells, cultured with compound for 3 days, read-out: IC50 (reduction of WST-1)): 2 nM | % increase in mean cell volume (A549 cells [2]; A549, 2.5 nM): 10.4% | % increase in mean cell volume (A549 cells [2]; A549, 5.0 nM): 10.7% | % increase in mean cell volume (A549 cells [2]; A549, 10.0 nM): 22.4% | increase in the mean forward scatter (A549 cells [2]; A549, non-cytotoxic doses up to 10 nM, 6 days): over 20% | % cells expressing CD14 ([3]; HL60, 5 nM): 3.3% | % cells expressing CD14 ([3]; HL60, 10 nM): 5.7% | % cells expressing CD14 ([3]; HL60, 25 nM): 46.0% | % cells expressing CD14 ([3]; HL60, 50 nM): 43.0% | CD14 expression in viable HL60 cells ([3]; doses greater than 10 nM): significantly enhanced CD14 expression | body weight ([4]; 3 mg/kg intraperitoneal three times a week, vs control): unaffected | decrease in mean body weight ([4]; over the duration of the experiment, similar in control group): ~12% | IC50 [5]: 60 nM | cell cycle phase accumulation (K562 leukemic cells): characteristic accumulation of cells in G2/M phases of the cell cycle | IC50 (THP-1 cells [6]): 15 nM | IC50 (THP-1 cells [7]; Homo sapiens, THP-1, THP-1 cells): ~70 nM | IC50 (THP-1 cells [7]; THP-1 cells): 72 nM | IC50 (A549 cells [8]; A549 cells): 32 nM | IC50 (A549 cells [8]; Homo sapiens, A549, A549 cells): ~30 nM | IC50 (A549 cells [9]): 7 nM | dead cells (trypan blue exclusion) (A549 cells [10]; A549, 10 nM): < 10% | prevention of the increase in cell number compared to untreated cells (A549 cells [10]; A549, 10 nM, nine day period): more than 95% | cell death (A549 cells [10]; A549, 50 nM): 86% | cell death (A549 cells [10]; A549, 250 nM): 100% | IC50 (THP-1 cells [11]): 60 nM
